Assay results as given in PMC4754331, “Programming of metabolic effects in C57BL/6JxFVB mice by in utero and lactational exposure to perfluorooctanoic acid” (Archives of Toxicology, 2015).
Read-outs that look alike come from different tables or passages of the source.

Key:
C57BL/6JxFVB hybrid mice [1] = assay: Offspring body weight and growth after perinatal exposure; assay type: in vivo; design: key to Time of effect: P: permanent effect on body weight throughout study; D: delayed (late onset) of effect; T: transient effect; E: effect observed during treatment; settings: for Emax: Mus musculus
Procedure: PFOA was obtained as sodium perfluoro-n-octanoate (PFOA-Na; CAS No. 335-95-5, purity >99 %) and kindly provided by Wellington Laboratories Inc., Ontario, Canada. PFOA-Na was dissolved in acetone and mixed with the diet (NIH-07, Research Diet Services, Wijk bij Duurstede, The Netherlands). Thereafter, acetone was allowed to evaporate, and this master mixture was serially diluted with a factor 3–3.3 by adding NIH-07, and afterward, the diet was pelleted. In this way, seven diet groups and a control NIH-07 (blank acetone was added) were obtained, aiming at concentrations of 0, 0.017, 0.056, 0.17, 0.56, 1.7, 5.6 and 17 mg/kg PFOA in feed, which corresponded to 0, 3, 10, 30, 100, 300, 1000 and 3000 µg/kg bw based on an average food consumption of 4.5 g per mouse (average body weight of 25 g) per day. PFOA concentrations in test diets were confirmed by isotope dilution liquid chromatography mass spectrometry after extraction with methanol (8402, JT Baker, Deventer the Netherlands) and a cleanup with carbon solid phase extraction (ENVI Carb, 57210-U, Supelco, Zwijndrecht, the Netherlands). Actual PFOA concentrations in the food were 15–30 % lower than the nominal values. The non-purified soy-based NIH-07 was chosen because it was originally designed to optimize gestation, lactation and growth of rodents, and avoiding natural phytoestrogens in the diet may have confounding effects (Ruhlen et al. [2008]). Estrogenic and anti-estrogenic activity for this diet was previously analyzed to be low and absent, respectively (van Esterik et al. [2014]).
A high fat diet (D12451, Research Diet Services, Wijk bij Duurstede, The Netherlands), containing 45 kcal % fat (lard) compared with 15 kcal % fat in the NIH-07 diet, was given to all F1 mice during the final weeks of the study (21–28 weeks of age).
After an acclimatization period of 1 week, female F0 mice were fed experimental diets explained above starting 2 weeks before mating and continued during mating (1 week), gestation (3 weeks) and lactation (3 weeks). Each dose group had six F0 females, which were mated three by three with two F0 males for each dose group. […] For every dose group, on average 9 mice per sex (range 6–10) were included for follow-up through juvenile and adult stages, selecting pups proportionally from available litters. F1 males were single-housed, and F1 females were housed in pairs from the same litter in standard Macrolon type I cages. Body weight was measured at postnatal day (PND) 4, 7, 14 and 21 and weekly from 5 weeks of age continuing until the end of the study. Food consumption could not be recorded reliably due to high spillage.
Growth was calculated by dividing body weight of subsequent weeks by body weight at week 5, i.e., at the start of the F1 follow-up.

C57BL/6JxFVB hybrid mice [2] = assay: Histopathology of liver; assay type: in vivo; settings: for Liver nuclear dysmorphology: count of individuals with Grade 0 / Liver nuclear dysmorphology: count of individuals with Grades 1, 2: p = 0.06 vs control
C57BL/6JxFVB hybrid mice [3] = assay: Glucose tolerance test; assay type: in vivo; settings: males and females; 300 µg/kg vs control; 19 weeks; data not shown
Procedure: (§1) One week later, at 20 weeks of age, an insulin tolerance test (ITT) was performed in the same animals as used for the GTT. Mice were not fasted to avoid low glucose baseline levels which, after an insulin injection, could lead to hypoglycemia. At the start of the experiment, a baseline blood sample was taken (0 min). […] The experiment was performed over two morning sessions, with 1.75 h between the first and last tested animal in each session, and animals were treated in a random order. At the age of 22–25 weeks, control and 300 µg/kg bw/d animals were used for a spontaneous locomotor activity test. After an acclimatization period of minimal 6 h, activity of the mice was continuously registered on four parallel platforms for 36 h (males) or 60 h (females), starting at the beginning of the dark phase (6.30 PM) of the first day.
Some measurements included only control and one or two dose groups and could therefore not be analyzed as dose–responses. GTT was therefore evaluated by repeated-measures or nested (to account for litter covariance) two-way ANOVAs (Graphpad Prism 5.0, R) to detect differences at the different time points and between the areas under the curve (AUC). Activity measurement, ucp1 expression, WAT adipocyte size and the proxy for cell number were also tested with a nested ANOVA (R). […]

C57BL/6JxFVB hybrid mice [4] = assay: Insulin tolerance test; assay type: in vivo; settings: males and females; 300 µg/kg vs control; 20 weeks; data not shown
Procedure: as §1

ucp1 = ucp1 gene expression in brown adipose tissue (qPCR); assay type: in vivo, mice; settings: males and females; 300 and 3000 µg/kg vs control; data not shown
Procedure: Some measurements included only control and one or two dose groups and could therefore not be analyzed as dose–responses. GTT was therefore evaluated by repeated-measures or nested (to account for litter covariance) two-way ANOVAs (Graphpad Prism 5.0, R) to detect differences at the different time points and between the areas under the curve (AUC). Activity measurement, ucp1 expression, WAT adipocyte size and the proxy for cell number were also tested with a nested ANOVA (R). Differences in distribution of BAT histopathology scores between experimental groups were tested for statistical significance in a two-tailed Fisher’s exact test.

[5] = Tolerable daily intake and human dietary exposure; design: species or system humans
[6] = C57BL/6JxFVB, 3-10-30-100-300-1000-3000 µg/kg bw/d, diet, 2w pre-mating-PND21, this study
[7] = F1 females, CES 5 %, high fat diet
[8] = males, 300 and 3000 µg PFOA/kg body weight/day combined, p = 0.07 vs control

For O=C(O)C(F)(F)C(F)(F)C(F)(F)C(F)(F)C(F)(F)C(F)(F)C(F)(F)F [PFOA, Perfluorooctanoic acid], the “Endpoint bw (age) F” value (C57BL/6JxFVB hybrid mice [1]; [6]) was “↓ PND4–w27”, the “Endpoint bw (age) M” value (C57BL/6JxFVB hybrid mice [1]; [6]) was “↓ PND4–w23” and the Time of effect (C57BL/6JxFVB hybrid mice [1]; C57BL/6JxFVB, this study, in males not observed during final 2 weeks (w24–25) under high fat diet) was “P^d”. For the same molecule, the “Body weight week 21: BMDL” value (C57BL/6JxFVB hybrid mice [1]; F1 females, CES 5 %) was 1239 µg/kg bw/d, the “Body weight week 21: BMDU” value (C57BL/6JxFVB hybrid mice [1]; F1 females, CES 5 %) was 3595 µg/kg bw/d and the “Body weight week 27: BMDL” value (C57BL/6JxFVB hybrid mice [1]; [7]) was 849 µg/kg bw/d. For the same molecule, the “Body weight week 27: BMDU” value (C57BL/6JxFVB hybrid mice [1]; [7]) was 5645 µg/kg bw/d, the “Body weight week 21: BMDL” value (C57BL/6JxFVB hybrid mice [1]; F1 males, CES 5 %) was 1024 µg/kg bw/d and the “Body weight week 21: BMDU” value (C57BL/6JxFVB hybrid mice [1]; F1 males, CES 5 %) was 3457 µg/kg bw/d. For the same molecule, the “Growth week 25/5: BMDL” value (C57BL/6JxFVB hybrid mice [1]; F1 males, CES 5 %) was 948 µg/kg bw/d, the “Growth week 25/5: BMDU” value (C57BL/6JxFVB hybrid mice [1]; F1 males, CES 5 %) was 2383 µg/kg bw/d and the Emax (C57BL/6JxFVB hybrid mice [1]; F1 females, read-out: Body weight week 21: max effect size) was -8%. The Emax (C57BL/6JxFVB hybrid mice [1]; F1 females, read-out: Body weight week 27: max effect size) was -9.1%, the Emax (C57BL/6JxFVB hybrid mice [1]; F1 females, read-out: Growth week 27/5: max effect size) was -8.6% and the Emax (C57BL/6JxFVB hybrid mice [1]; F1 males, read-out: Body weight week 21: max effect size) was -9.1%. The Emax (C57BL/6JxFVB hybrid mice [1]; F1 males, read-out: Growth week 25/5: max effect size) was 11%, the “Body weight PND4: CED” value (C57BL/6JxFVB hybrid mice [1]; females, CES −0.05, Fig. 2c) was 0.0628 µg/kg body weight/day and the “Body weight PND4: CEDLbt” value (C57BL/6JxFVB hybrid mice [1]; females, CES −0.05, Fig. 2c) was 2.004e−08 µg/kg body weight/day. The “Body weight PND4: CEDUbt” value (C57BL/6JxFVB hybrid mice [1]; females, CES −0.05, Fig. 2c) was 42.23 µg/kg body weight/day, the “Body weight week 27: CED” value (C57BL/6JxFVB hybrid mice [1]; females, CES −0.05, Fig. 2d) was 1560 µg/kg body weight/day and the “Body weight week 27: CEDLbt” value (C57BL/6JxFVB hybrid mice [1]; females, CES −0.05, Fig. 2d) was 849.1 µg/kg body weight/day. For the same molecule, the “Body weight week 27: CEDUbt” value (C57BL/6JxFVB hybrid mice [1]; females, CES −0.05, Fig. 2d) was 5645 µg/kg body weight/day, the “Body weight from PND4 until adulthood (week 21)” value (C57BL/6JxFVB hybrid mice [1]; females, standard diet) was “dose-dependently decreased” and the “Body weight at PND4” value (C57BL/6JxFVB hybrid mice [1]; males) was “dose-dependent decrease”. For the same molecule, the “Body weight PND4: CEDLbt” value (C57BL/6JxFVB hybrid mice [1]; males, CES −0.05, Fig. 2a) was 1e−12 µg/kg body weight/day, the “Body weight PND4: CEDUbt” value (C57BL/6JxFVB hybrid mice [1]; males, CES −0.05, Fig. 2a) was 42.23 µg/kg body weight/day and the “Body weight PND4: CED” value (C57BL/6JxFVB hybrid mice [1]; males, CES −0.05, Fig. 2a, unit from legend) was 0.0039 µg/kg body weight/day. The “Body weight in weeks 22 and 23” value (C57BL/6JxFVB hybrid mice [1]; males, high fat diet, data not shown) was “dose-dependent decrease”, the “Liver eosinophilic alteration: count of individuals with Grades 0, 1” value (C57BL/6JxFVB hybrid mice [2]; females, 300 and 3000 combined) was 11 and the “Liver eosinophilic alteration: count of individuals with Grades 2, 3” value (C57BL/6JxFVB hybrid mice [2]; females, 300 and 3000 combined) was 8. For the same molecule, the “Liver fatty change: count of individuals with Grade 0” value (C57BL/6JxFVB hybrid mice [2]; females, 300 and 3000 combined) was 17, the “Liver fatty change: count of individuals with Grades 1, 2, 3” value (C57BL/6JxFVB hybrid mice [2]; females, 300 and 3000 combined) was 2 and the “Liver nuclear dysmorphology: count of individuals with Grade 0” value (C57BL/6JxFVB hybrid mice [2]; females, 300 and 3000 combined) was 12. For the same molecule, the “Liver nuclear dysmorphology: count of individuals with Grades 1, 2” value (C57BL/6JxFVB hybrid mice [2]; females, 300 and 3000 combined) was 7, the “Liver eosinophilic alteration: count of individuals with Grade 0” value (C57BL/6JxFVB hybrid mice [2]; [8]) was 14 and the “Liver eosinophilic alteration: count of individuals with Grades 1, 2” value (C57BL/6JxFVB hybrid mice [2]; [8]) was 6. For the same molecule, the “Liver fatty change: count of individuals with Grade 0” value (C57BL/6JxFVB hybrid mice [2]; males, 300 and 3000 combined) was 16, the “Liver fatty change: count of individuals with Grades 1, 2, 3, 4” value (C57BL/6JxFVB hybrid mice [2]; males, 300 and 3000 combined) was 4 and the “Liver nuclear dysmorphology: count of individuals with Grade 0” value (C57BL/6JxFVB hybrid mice [2]; males, 300 and 3000 combined) was 13. The “Liver nuclear dysmorphology: count of individuals with Grades 1, 2” value (C57BL/6JxFVB hybrid mice [2]; males, 300 and 3000 combined) was 7, the “Glucose homeostasis: GTT” value (C57BL/6JxFVB hybrid mice [3]) was “did not show an effect” and the “Glucose homeostasis: ITT” value (C57BL/6JxFVB hybrid mice [4]) was “did not show an effect”. The “ucp1 expression in brown adipose tissue” value (ucp1) was “did not show an effect”, the “Factor by which the lowered TDI is higher than the human dietary exposure range in infants” value [5] was 15 and the “TDI when applying the developmental BMDL of 46 µg/kg bw/d” value [5] was 230 ng/kg bw/d.
